As usually defined, the IC50 is the midpoint of a concentration-inhibition curve.

The test system of assay [1] is Lytechinus variegatus. Nature of the assay: Antimitotic effect in Lytechinus variegatus at blastulae stage at 10 ug/mL. Type of assay: functional, Blastula stage.
Assay [2] relates to MDA-MB-435. Nature of the assay: Cytotoxicity against MDA-MB-435 cells. To be noted: Homo sapiens. Type of assay: functional, cell-based.
Assay [3] concerns Lytechinus variegatus. Description: Antimitotic effect in Lytechinus variegatus at third cleavage stage at 10 ug/mL. The class given is functional.
The subject of assay [4] is Lytechinus variegatus. Description: Antimitotic effect in Lytechinus variegatus at blastulae stage at 100 ug/mL. Type of assay: functional, Blastula stage.
Assay [5] concerns Lytechinus variegatus. Description: Antimitotic effect in Lytechinus variegatus at third cleavage stage at 100 ug/mL. The class given is functional.
Assay [6] concerns Lytechinus variegatus. Description: Antimitotic effect in Lytechinus variegatus at first cleavage stage at 10 ug/mL. The class given is functional.
Assay [7] deals with HCT-8. Description: Cytotoxicity against HCT8 cells. To be noted: Homo sapiens. The class given is functional, cell-based.
The subject of assay [8] is SF-295. Nature of the assay: Cytotoxicity against SF295 cells. Type of assay: functional, cell-based. To be noted: Homo sapiens.
For assay [9], the system named is Lytechinus variegatus. Description: Antimitotic effect in Lytechinus variegatus at first cleavage stage at 100 ug/mL. The class given is functional.
The subject of assay [10] is HL-60. Nature of the assay: Cytotoxicity against HL60 cells. The class given is functional, cell-based. To be noted: Homo sapiens.

For `NC(=O)[C@H](Cc1ccc(Oc2c(Cl)cccc2Cl)cc1)NC(=O)Cc1cc2c(cc1[N+](=O)[O-])OCO2`, the Activity in [1] is on record as 1.7%; in assay [3], 38%; in assay [4] it was 15%; in assay [5], 46%; in assay [6], 92.3%; in assay [9] it was 85.3%. In addition, the IC50 was 9.9 µM in assay [2], 8.5 µM in assay [7], over 50 µM in assay [8] and over 50 µM in assay [10].
As for `CCOC(=O)CNC(=O)Cc1ccc2c(c1)OCO2`, the Activity in assay [1] is 83.7%; in assay [3] it was 71.3%; in assay [4], 0.3%; in [5], 15.7%; in assay [6], 83%; in assay [9], 79.7%. The IC50 in assay [2] was over 50 µM; in assay [7], 4.3 µM; in assay [8] it was 13.5 µM; in assay [10] it was 18.7 µM.
Turning to `COc1cccc2c1C(=O)c1c(O)c3c(c(O)c1C2=O)C[C@@](O)(C(=O)CO)C[C@@H]3O[C@H]1C[C@H](N)[C@H](O)[C@H](C)O1` [DOXORUBICIN], the Activity in [1] came to 0.3%; in assay [3], 0%; in assay [4], 0%; in assay [5] it was 1.5%; in [6], 36%; in assay [9], 16.3%. Further, the results for the IC50 in assay [2], in assay [7] and in assay [8] were 0.83 µM, 0.03 µM and 0.42 µM, respectively.
Take `CC(C)C[C@H](NC(=O)Cc1cc2c(cc1[N+](=O)[O-])OCO2)C(N)=O`: the Activity in [1] is 80.3%; in assay [3] it was 77%; in assay [4], 89%; in [5], 72.7%; in assay [6] it was 88.3%; in assay [9], 94.3%. Moreover, the IC50 in [2] was over 50 µM; in assay [7] it was over 50 µM; in assay [8], 19.1 µM; in assay [10] it was over 50 µM.
Regarding `C[C@H](NC(=O)Cc1ccc2c(c1)OCO2)C(N)=O`, the Activity in assay [1] is on record as 92%; in assay [3], 68.3%; in [4], 87.7%; in [5], 78.7%; in assay [6], 76.3%; in [9], 76.5%. Besides, the IC50 in [2], in assay [7], in [8] and in assay [10] was over 50 µM in each case.
In the case of `CC(C)[C@H](NC(=O)Cc1ccc2c(c1)OCO2)C(N)=O`, the Activity in [1] worked out at 96.7%; in assay [3], 67%; in [4], 1%; in [5], 61.7%; in [6], 88%; in [9], 70.7%. In addition, the concentration for half-maximal inhibition (IC50) in [2], in assay [7], in [8] and in assay [10] was over 50 µM throughout.
Take `CC[C@@H](C)[C@H](NC(=O)Cc1ccc2c(c1)OCO2)C(N)=O`: the Activity in assay [1] was found to be 94.7%; in assay [3], 62%; in assay [4], 84.7%; in assay [5] it was 70.3%; in assay [6], 89.3%; in assay [9] it was 87.7%. Also, the 50% inhibitory concentration (IC50) in assay [2], in assay [7], in assay [8] and in assay [10] was over 50 µM throughout.
For `CC(C)(C)OC(=O)NCCCC[C@H](NC(=O)Cc1cc2c(cc1[N+](=O)[O-])OCO2)C(N)=O`, the Activity is listed as 79.7% in [1]; 72.3% in assay [3]; 3.7% in assay [4]; 66.3% in [5]; 88.7% in [6]; 88.7% in [9]. The IC50 in assay [2] is 9.2 µM; in [7], over 50 µM; in [8] it was 31.6 µM; in assay [10], 5.4 µM.
With `NC(=O)[C@H](Cc1ccccc1)NC(=O)Cc1cc2c(cc1[N+](=O)[O-])OCO2`, the Activity in assay [1] is reported as 92%; in assay [3], 73.3%; in [4], 0%; in assay [5], 5.3%; in assay [6] it was 86.3%; in assay [9] it was 1.7%. Also, the IC50 in [2], in assay [7], in [8] and in assay [10] was over 50 µM throughout.
For the compound `C=CCc1ccc2c(c1)OCO2` [SAFROLE], the Activity in assay [1] was determined as 31.7%; in assay [3], 33.7%; in assay [4], 0.3%; in assay [5], 0%; in [6], 59.5%; in [9], 0.7%. The IC50 came out at 105 µM in [2], 36.1 µM in [7], 32.6 µM in [8] and 104 µM in [10].

The values are drawn from ChEMBL document CHEMBL1144576, “Synthesis and antitumour evaluation of peptidyl-like derivatives containing the 1,3-benzodioxole system” (Eur J Med Chem, 2007).
